Laboratory results from the NIST ThermoML archive (doi:10.1016/j.fluid.2012.08.005).
Numbers after ± are expanded uncertainties.

Test: xn = mol fraction of the nth substance listed
Conditions: 101 kPa, Liquid, Vibrating tube method

c1ccoc1 [furan] + CCCCCC
mass density [kg/m3]
Conditions | x1 = 0.12 | x1 = 0.199 | x1 = 0.365 | x1 = 0.511 | x1 = 0.623 | x1 = 0.786 | x1 = 0.908 | x1 = 1
293.15 K | 677.8 ± 0.3 | 690.2 ± 0.3 | 721.4 ± 0.3 | 755.2 ± 0.3 | 786.2 ± 0.3 | 841.2 ± 0.3 | 891.9 ± 0.2 | 939.8 ± 0.2
298.15 K | 673.9 ± 0.3 | 686.1 ± 0.3 | 717 ± 0.3 | 750.5 ± 0.3 | 781.4 ± 0.3 | 835.9 ± 0.3 | 886.4 ± 0.2 | 934 ± 0.2
303.15 K | 670 ± 0.3 | 682.2 ± 0.3 | 712.8 ± 0.3 | 746 ± 0.3 | 776.6 ± 0.3 | 830.8 ± 0.3 | 881 ± 0.2 | 928.3 ± 0.2

c1ccoc1 [furan] + Cc1ccccc1
mass density [kg/m3]
Conditions | x1 = 0.1 | x1 = 0.199 | x1 = 0.387 | x1 = 0.507 | x1 = 0.591 | x1 = 0.761 | x1 = 0.89 | x1 = 1
293.15 K | 873.3 ± 0.1 | 878.9 ± 0.1 | 889.8 ± 0.1 | 897.7 ± 0.1 | 903.8 ± 0.2 | 917.5 ± 0.2 | 929.2 ± 0.2 | 939.8 ± 0.2
298.15 K | 869.5 ± 0.1 | 875 ± 0.1 | 885.6 ± 0.1 | 893.2 ± 0.1 | 899.1 ± 0.2 | 912.4 ± 0.2 | 923.7 ± 0.2 | 934 ± 0.2
303.15 K | 865.9 ± 0.1 | 871.2 ± 0.1 | 881.5 ± 0.1 | 888.9 ± 0.1 | 894.6 ± 0.2 | 907.5 ± 0.2 | 918.4 ± 0.2 | 928.3 ± 0.2

CCCCCC [hexane] + c1ccoc1
x2 = 0
Conditions | mass density [kg/m3]
293.15 K | 660.8 ± 0.3
298.15 K | 657 ± 0.3
303.15 K | 653.3 ± 0.3

Cc1ccccc1 [toluene] + c1ccoc1
x2 = 0
Conditions | mass density [kg/m3]
293.15 K | 868.2 ± 0.1
298.15 K | 864.5 ± 0.1
303.15 K | 861 ± 0.1
